Experimental data: patent US20140023650A1, “Methods of Treating and/or Preventing Cell Proliferation Disorders with IL-17 Antagonists” (INSTITUT MEDICAL DE LA SANTE ET DE LA RECHERCHE MEDICALE, priority 2010, published 2014)

What was measured:
B cell clones = assay: Cell viability of B cell clones (propidium iodide uptake, flow cytometry); type: cell-based, human; conditions: doxorubicin 300 nM, 96 h, no antibodies
Description: FIG. 4: Autocrine production of IL-17 and BAFF protects B cell clones from doxorubicin-mediated cell death. (A) B cell clones secrete IL-17 and BAFF. B104 human B lymphoma cells and B cell clones DN1#1, DN1#2, DN1#3, DN1#4, DN2#5 and DN2#6 (see FIG. 3, above) were seeded at 10^5 cell/mL in medium alone and maintained in culture for 5 days. At day 5, IL-17 and BAFF concentration in cell culture supernatants was determined by ELISA. (B-1 to B-6) IL-17 and BAFF neutralizing antibodies induce B cell clone apoptosis and increase doxorubicin-induced apoptosis. […] Viability was assessed by propridium iodide uptake and flow cytometry analysis. […] B104 human B lymphoma cell line, either non-treated (NT) or pre-treated for 24 h in the presence of CpG2006 (CpG, 2.5 μg/mL) or IL-17 (1 ng/mL) and BAFF (100 ng/mL) as indicated, as well as clones DN1#1, DN1#2, DN1#3, DN1#4, DN2#5 and DN2#6 were treated or not with doxorubicin (300 nM) for 6 h and then p53, p21 and actin protein expression was assessed by immunoblotting. […]
FIG. 8: Neutralizing antibodies to IL-17, BAFF, IL-6, and IL-10 induce apoptosis and sensitize B cell clones to chemotherapy (doxorubicin). […] Viability was assessed by propridium iodide uptake and flow cytometry analysis.
Cell viability was assessed by propidium iodide (Sigma) uptake. Data were acquired on a FACSCalibur (BD Biosciences) and were analyzed with Flowio software (TreeStar).

[1] = tested on: patients with Rheumatoid Arthritis; conditions: cited from earlier work
SLE patients = conditions: cited from earlier work
MCF10A [2] = assay: Transwell migration and Matrigel invasion assays, MCF10A; type: cell-based, human; conditions: for increase in cell invasion / increase in cell migration: TNFα 100 ng/mL or TGFβ 8 ng/mL, 9 days
Description: (§1) FIG. 16: IL-17 induces Epithelial to Mesenchymal Transition (EMT) via Twist-1 upregulation in mammary epithelial cells which increases cell migration, invasion and stemness. Human immortalized mammary epithelial cells (MCF10A) cells were untreated (NT) or treated with TNFα (100 ng/mL), TGF (8 ng/mL) or IL-17 (10 ng/mL) for 9 days. (A) MCF10A cells were first transduced using shRNA lentiviral constructs targeting the LUCIFERASE gene (shCt), AICDA gene (shAICDA) or TWIST1 gene (shTWIST1) mRNA and then treated with cytokines as indicated above. IL-17 (but no TNFα or TGFβ) induces EMT in ShCt and ShAICDA MCF10A characterized by loss of epithelial marker E-Cadherin (which, in color, fluoresces in green) and gain of mesenchymal marker Vimentin (which, in color, fluoresces in red) as assessed by immunofluorescence. […] (B) IL-17 (but no TNFα or TGFβ) induces EMT characterized by loss of epithelial markers E-Cadherin, α-Catenin and Occludin and gain of mesenchymal markers N-Cadherin and Vimentin as assessed by immunobloting. Actin was used as a loading control. (C) IL-17 enhances migratory (black bars) and invasive (white bars) abilities of MCF10A cells as assessed in Boyden chamber assays. (D-1 to D-3) IL-17 increases the number of CD24^low CD44^high stem cells in MCF10A cells. Flow cytometry assay showing CD24 and CD44 expression in untreated (NT) and IL-17-treated MCF10A cells (IL-17). Decreased CD24 and increased CD44 expression is indicative of normal stem cells. Red box indicates the stem cell population.
For transwell migration assay, 5·10^4 cells were plated in the top chamber with the non-coated membrane (24-well insert; pore size, […]; BD Biosciences). For invasion assay, 5·10^4 cells were plated in the top chamber with Matrigel-coated membrane (24-well insert; pore size, […]; BD Biosciences). In both assays, cells were plated in 1% serum medium, and 10% serum medium was used as a chemo-attractant in the lower chamber. The cells were incubated for 24 h. Cells that reached the lower chamber were stained with Giemsa and counted. Total number of migrating/invading cell was calculated by analyzing 5 fields per well in two independent experiments, that is 10 fields per condition.

MCF10A [3] = assay: CD24/CD44 flow cytometry (stem cells), MCF10A; type: cell-based, human; conditions: MCF10A upon IL-17 exposure; ~16% untreated (FIG. 16D)
Description: as §1, with “Actin was used as a loading control.” left out, “(D-1 to D-3) IL-17 increases the number of CD24^low CD44^high stem cells in MCF10A cells. Flow cytometry assay showing CD24 and CD44 expression in untreated (NT) and IL-17-treated MCF10A cells (IL-17). Decreased CD24 and increased CD44 expression is indicative of normal stem cells. Red box indicates the stem cell population.” left out
Expression of human IL-17R (FAB177P, R&D system), CD24 (BD Pharmingen) and CD44 (BD Pharmingen) was determined by flow cytometry on a FACSCalibur flow cytometer (BD Biosciences) and analyzed using FlowJo software (Tree star). […]

MCF7 = assay: CD24/CD44 flow cytometry (cancer stem cells), MCF7; type: cell-based, human; conditions: MCF7 upon IL-17 exposure; ~0% untreated (FIG. 17C)
Description: (§2) FIG. 17: IL-17 induces Epithelial to Mesenchymal Transition (EMT) in well differentiated and non-metastatic MCF7 breast cancer cells which increases MCF7 cancer cell migration, invasion and sternness. MCF7 cells were untreated (NT) or treated TGFβ (8 ng/mL) or IL-17 (10 ng/mL) for 9 days. (A) IL-17 (but not TGFβ) induces EMT characterized by loss of epithelial marker E-Cadherin (which, in color, fluoresces in green) and gain of mesenchymal marker Vimentin (which, in color, fluoresces in red) as assessed by immunofluorescence. (B) IL-17 enhances migratory (black bars) and invasive (white bars) abilities of MCF7 cancer cells as assessed in Boyden chamber assays. (C-1 to C-3) IL-17 increases the number of CD24^low CD44^high stem cells in MCF7 cancer cells. Flow cytometry assay showing CD24 and CD44 expression in untreated (NT) and IL-17-treated MCF7 cells (IL-17). Decreased CD24 and increased CD44 expression is indicative of cancer stem cells. Red box indicates the cancer stem cell population.
Expression of human IL-17R (FAB177P, R&D system), CD24 (BD Pharmingen) and CD44 (BD Pharmingen) was determined by flow cytometry on a FACSCalibur flow cytometer (BD Biosciences) and analyzed using FlowJo software (Tree star). The antibodies were used at 1/25, 1/100 and 1/100 respectively.

MCF7 breast cancer cells = assay: Boyden chamber migration and invasion assays, MCF7; type: cell-based, human; conditions: MCF7, IL-17 10 ng/mL, stimulated (FIG. 17B)
Source text: as §2, with “MCF7 cells were untreated (NT) or treated TGFβ (8 ng/mL) or IL-17 (10 ng/mL) for 9 days.” left out
For transwell migration assay, 5·10^4 cells were plated in the top chamber with the non-coated membrane (24-well insert; pore size, […]; BD Biosciences). […] Cells that reached the lower chamber were stained with Giemsa and counted. Total number of migrating/invading cell was calculated by analyzing 5 fields per well in two independent experiments, that is 10 fields per condition.

COc1cccc2c1C(=O)c1c(O)c3c(c(O)c1C2=O)C[C@@](O)(C(=O)CO)C[C@@H]3O[C@H]1C[C@H](N)[C@H](O)[C@H](C)O1 [doxorubicin]
doxorubicin-induced apoptosis of B cell clones (B cell clones): remarkably resistant

AIN 457: human anti-IL-17 monoclonal antibody (Novartis)
patients in whom treatment was effective ([1]; Rheumatoid Arthritis, 27% of patients who received placebo): 46%
safety / tolerability in RA patients ([1]; patients with RA): safe

Belimumab: humanized anti-BAFF antibody
biological activity in SLE patients (SLE patients): biologically active
tolerability in SLE patients (SLE patients): well tolerated

IL-17: recombinant IL-17 (PeproTech, ref 200-17)
increase in ability to migrate in transwell migration assay (MCF10A [2]; IL-17 10 ng/mL, 9 days (FIG. 16C, black bars)): ~16 fold
increase in invasive ability in Matrigel invasion assay (MCF10A [2]; IL-17 10 ng/mL, 9 days (FIG. 16C, white bars)): ~10 fold
percentage of CD24low/CD44high stem cells (MCF10A [3]): 71%
percentage of CD24lowCD44high cancer stem cells (MCF7): 67%
increase in invasive ability (MCF7 breast cancer cells): ~10 fold
increase in migratory ability (MCF7 breast cancer cells): ~8 fold

LY2439821: humanized monoclonal antibody against IL-17A (Eli Lilly)
efficacy compared to placebo ([1]; intravenous, certain doses, RA patients): statistically significantly more effective

TGFβ: recombinant TGFβ (PeproTech, 100-21)
increase in cell invasion (MCF10A [2]): weak
increase in cell migration (MCF10A [2]): weak

TNFα
increase in cell invasion (MCF10A [2]): no
increase in cell migration (MCF10A [2]): no
